≈ marks a conversion by molar mass, not a printed value. Like-named read-outs stand apart in the source and are kept apart here.

Data set [1] concerns Mycobacterium tuberculosis (H37Rv strain from ATCC cat #27294) expressing the green-fluorescent protein (GFP). The data set is described as follows: microbe, parasite or virus in culture. In kind it is cell-based. Conditions: 120 h.
The subject of data set [2] is Mycobacterium tuberculosis growing inside murine Raw 264.7 cell line. Briefly: microbe, parasite or virus in culture. Conditions: H37RV, RAW264.7, 120 h. In kind it is cell-based.
The test system of data set [3] is M. tuberculosis H37Rv strain. Conditions: for reduction of microorganism burden in lungs with respect to untreated controls (Day 9): C57BL/6 mice.
Data set [4] deals with Mycobacterium bovis BCG str. Pasteur 1173P2. The data set is described as follows: microbe, parasite or virus in culture. In kind it is cell-based.
For data set [5], the system named is Mycobacterium tuberculosis growing inside human THP-1 monocytes. The data set is described as follows: Intracellular viability assay 1a (THP-1, luciferase, Steady-Glo). In kind it is cell-based, Mycobacterium tuberculosis H37Rv. Conditions: THP-1, 120 h.
Data set [6] shares this test system. The data set is described as follows: Intracellular viability assay 1b (THP-1, luciferase, Bright-Glo). Type of data set: cell-based, Mycobacterium tuberculosis H37Rv. Conditions: THP-1, 120 h.
Data set [7] has as its system M. tuberculosis strain H37Rv. The data set is described as follows: Extracellular viability assay, glucose media (Method 2), resazurin MIC. Conditions: Mycobacterium tuberculosis. In kind it is cell-based. Background: The colour change of resazurin is a common sign of viable cells or microbes.
In data set [8] the test system is Mycobacterium tuberculosis Erdman strain. The data set is described as follows: Extracellular viability assay, Erdman strain, cholesterol media (Method 3). Type of data set: cell-based. Conditions: 0.01% cholesterol medium, 7 days + 48 h resazurin, average over 5 measurements.
Another data set concerns M. africanum. The data set is described as follows: Extracellular MIC assay of Example 7, M. africanum. Type of data set: cell-based. Conditions: Mycobacterium tuberculosis, cholesterol medium.
The subject of another data set is M. bovis 0AF2122. The data set is described as follows: microbe, parasite or virus in culture. In kind it is cell-based. Conditions: Mycobacterium tuberculosis variant bovis, 0AF2122, read-out: MIC 2.
[9] abbreviates: read-out: IC50 (uM) (cholesterol media).
Where [10] appears, read: read-out: IC50 (uM) (glucose media).

`NNC(=O)c1ccncc1` [Isoniazid]: the IC50 (commonly the midpoint of a concentration-inhibition curve) is 0.2 µM in data set [1] (setting [9]), 0.5 µM in data set [1] (setting [10]) and 70 nM in data set [2].

For `COc1c(N2C[C@@H]3CCCN[C@@H]3C2)c(F)cc2c(=O)c(C(=O)O)cn(C3CC3)c12` [Moxifloxacin, reference compound], the “reduction of microorganism burden in lungs with respect to untreated controls (Day 9)” value in data set [3] (30 mg/kg once a day for 8 days) stood at 3.2 log10 CFU.

As to `CO[C@H]1/C=C/O[C@@]2(C)Oc3c(C)c(O)c4c(O)c(c(/C=N/N5CCN(C)CC5)c(O)c4c3C2=O)NC(=O)/C(C)=C\C=C\[C@H](C)[C@H](O)[C@@H](C)[C@@H](O)[C@@H](C)[C@H](OC(C)=O)[C@@H]1C` [Rifampicin, reference compound], at 2 µM the inhibition in [4] (Mycobacterium tuberculosis variant bovis BCG, BCG) was 100%. The IC50 in [1] (setting [9]) came to 0.04 µM; in [1] (setting [10]), 0.02 µM; in data set [5], 10 nM; in data set [6], 2 nM; in [2], 200 nM.

With `Cc1cccc(OC2CCN(Cc3cc(=O)[nH]c(=O)[nH]3)CC2)c1C` [Test Compound, 6-((4-(2,3-dimethylphenoxy)piperidin-1-yl)methyl)pyrimidine-2,4(1H,3H)-dione], in data set [4], the % Inhibition (as a rule, the share of the control response that was lost under treatment) turned out to be 46.18%. Also, the concentration for half-maximal inhibition (IC50) in data set [1] (setting [9]) is 0.28 µM; in data set [1] (setting [10]) it was over 20 µM; in [8], 874 nM; in data set [5] it was 390 nM; in data set [6] it was 70 nM; in [2] it was 60 nM. Further, the MIC in [7] is over 12.5 µM; in the data set on M. africanum (read-out: MIC 1), 1.2 µM (≈ 0.395 µg/mL); in the data set with M. africanum (read-out: MIC 2), 1.2 µM (≈ 0.395 µg/mL); with M. bovis 0AF2122, 0.78 µM (≈ 0.257 µg/mL). Besides, the “reduction of microorganism burden in lungs with respect to untreated controls (Day 9)” value in [3] (200 mg/kg once a day for 8 days) stood at 1.6 log10 CFU. In addition, the “oral bioavailability (conclusion from murine in vivo data)” value in [3] (mouse) is reported as “orally bioavailable”.

The values are drawn from patent publication US10624893B2 (priority 2016, dated 2020).
